Data on two substances can be found in patent US8105652B2, “Methods of making decomposable thin films of polyelectrolytes and uses thereof” (Massachusetts Institute of Technology, priority 2002, dated 2012).

This data set can be described thus: Release from two-component films with barrier layers. It is filed as physicochemical. The text has this: In one exemplary embodiment, a range of strategies were employed to control the relative positions of multiple, labeled species within a single film by constructing physical barriers to separate the two components. In one embodiment, films were constructed containing 20-40 base layers of polymer 1/HEP, followed by a set of “barrier” layers including polymer 1/SPS (degradable), PDAC/SPS (non-degradable), thermally cross-linked PAH/PAA, or nothing at all, followed by 20-40 surface layers of polymer 1/DS (FIG. 18). A similar set of films was also constructed, but with the order of the labeled components reversed (e.g., DS base layers and HEP surface layers).
Thus, the use of a single covalently cross-linked PAH/PAA layer was sufficient to separate the two components when deposited onto the surface of the linearly growing polymer 1/DS system, as evidenced by the two-stage release profile. Following a delay of approximately 25 h, the underlying DS was released with a linear profile.
FIG. 27A illustrates the effect of barrier layers on the average release rate from the exemplary two-component systems described above. It is apparent that the average release rate (taken as the average slope of the initial, linear portion of the release curve) of systems including of an underlying layer of linearly-growing DS can be broadly controlled using both multiple layers of a nondegradable system PDAC/SPS or as little as a single layer of cross-linked PAH/PAA. Further, by tuning any of the parameters affecting the degree of cross-linking (e.g., cross-linking time, temperature, number of cross-linked layers), the release rate can be dramatically altered. […] Thus, milder cross-linking conditions (e.g., lower temperatures) may allow for a greater degree of flexibility in tailoring release profiles. Further, aqueous, chemical cross-linking techniques using common biochemical reagents such as carbodiimides may represent a suitable alternative to thermal cross-linking when low temperature fabrication is required. Nevertheless, one skilled in the art will recognize that a range of approaches may be employed to control the release of underlying species, particularly when the underlying species lacks the ability to diffuse throughout the film.
General Considerations. A Harrick PDC-32G plasma cleaner was used to etch silicon substrates (3 cm×2 cm) following rinsing with methanol and deionized water and drying under a stream of dry nitrogen. Layer-by-layer thin films were deposited using an automated Carl Zeiss HMS Series Programmable Slide Stainer. Absorbances from growing films were measured using Fourier Transform Infrared Spectroscopy (FTIR) using a Nicolet Magna IR 550 Series II Spectrometer. Zinc selenide substrates used for transmission FTIR analysis were prepared using the same method employed for silicon substrates, Ellipsometric measurements for film thickness were conducted using a Gaertner Variable Angle Ellipsometer ([…], 70° incident angle) and Gaertner Ellipsometer Measurement Program (GEMP) Version 1.2 software interface. The release of radiolabeled polymers was quantified using a Tri-carb liquid scintillation counter (Model U2200). […] (PAH/PAA) films were thermally cross-linked by incubating films in a Yamoto DVS400 gravity convection oven at 215° C. for indicated time intervals.
Release Studies. For drug release experiments, radiolabeled LbL thin films were first constructed by alternately depositing polymer 1 and the indicated radiolabeled drug(s). Radiolabled deposition solutions containing ^3H-heparin were prepared by combining 1 mL of 50 μCi/mL ^3H-heparin (0.30 mCi/mg, Mn=12500) with 35 mL of 100 mM acetate buffer. Unlabeled heparin (Mn=12500) was added to bring the total concentration of heparin (unlabeled plus labeled) to 2 mg/mL (1.5-2 μCi/mL ^3H). […]

The mark [1] stands for this setting: DS base layer, heparin surface layer, 50 (PDAC/SPS) non-degradable dividing layers.
Setting [2] is: DS base layer, heparin surface layer, 50 (Poly1/SPS) degradable dividing layers.
The mark [3] stands for this setting: DS base layer, heparin surface layer, separated by a single cross-linked layer of (PAH/PAA).
The mark [4] stands for this setting: DS base layer, heparin surface layer, without dividing layers.
The mark [5] stands for this setting: heparin base layer, DS surface layer, (PDAC/SPS)50 non-degradable dividing layers.
Setting [6] is: heparin base layer, DS surface layer, (Poly1/SPS)20 degradable dividing layers.
[7] abbreviates: heparin base layer, DS surface layer, without dividing layers.
The mark [8] stands for this setting: polymer 1/DS base, single PAH/PAA bilayer cross-linked 20 min at 215° C., polymer 1/HEP surface.

For Heparin sodium salt, the release pattern result under setting [1] is “simultaneous release”; the release pattern entry under setting [2] is “simultaneous release”; the release pattern entry under setting [3] is recorded as “sequential release”; the release pattern result under setting [4] was “simultaneous release”; the release pattern entry under setting [5] was “simultaneous release”; the release pattern result under setting [6] is “simultaneous release”. In addition, the release pattern result under setting [7] is recorded as “simultaneous release”. Further, the “effect of barrier layer on release of heparin” value (heparin-loaded films coated with a single layer of (PAH/PAA) cross-linked 45 min at 215° C. vs untreated films) was “does not significantly delay”.

For Dextran sulfate sodium salt [DS], the release pattern result is, setting by setting: under setting [1], “simultaneous release”; under setting [2], “simultaneous release”; under setting [3], “sequential release”; under setting [4], “simultaneous release”; under setting [5], “simultaneous release”; under setting [6], “simultaneous release”. Besides, the release pattern result under setting [7] is “simultaneous release”. In addition, the “change in release rate” value (cross-linking times greater than 1.5 h at 215° C., or barriers with more than five cross-linked layers (data not shown)) was “one to two order of magnitude decreases”. Under “multiple layers of PAH/PAA cross-linked longer than 1.5 h at 215° C., up to 45 days”, the “release of underlying DS” value is “no release of DS was observed”. Under setting [8], the “average rate of DS release, slower than in corresponding films without covalently cross-linked barrier layers” value is recorded as “approximately 60%”. Under setting [8], the “delay before release of underlying DS” value is listed as “approximately 25 h”.
